Values joined by “and” are separate entries in the source; they are usually repeats but may differ in a detail not shown here. Equal values may be shown once. Read-outs that look alike come from different tables or passages of the source.
Legend:
urease [1] = settings: prior art; cited from earlier work
[2] = solid mixtures with urea, 25° C.; cited from earlier work
[3] = 25° C., cited from earlier work; for first-order reaction half-life: UAN (31-0-0)
urease [4] = assay: Urease inhibition tests with TPTA and PPDA in fluid fertilizers, banded soil system (urease-active Hastings silt loam); format: biochemical; settings: for average % urea unhydrolyzed, 3 days / % urea unhydrolyzed, 3 days: 3 days incubation at 25° C.; for average % urea unhydrolyzed, 3 days / average % urea unhydrolyzed, 6 days: average of A and B samples; for % urea unhydrolyzed, 3 days / % urea unhydrolyzed, 6 days: single sample; for average % urea unhydrolyzed, 6 days / % urea unhydrolyzed, 6 days: 6 days incubation at 25° C.
Procedure: Samples of UAN (31-0-0), 1 g, and (36-0-0), 0.66 g containing approximately 0.38 g urea and 0.041 g of TPTA were prepared by dissolving solid TPTA in 31-0-0 and 36-0-0 of the compositions shown in Table I, supra. Identical samples containing PPDA and without either inhibitor were prepared to serve as references for purposes of data comparison.
Urease-active soil (Hastings silt loam) was moistened to a moisture content of 20 percent and preincubated at room temperature for two days. Plexiglass containers (6×6×6 cm) were one-half filled with soil and packed to a bulk density of 1.0 g/cm^3. The 31-0-0 and 36-0-0 samples containing TPTA and PPDA as well as samples containing no inhibitor were distributed evenly in a narrow band 6 cm along the soil surface. The containers were filled with soil and again packed to a bulk density of 1.0 g/cm^3. The containers were incubated at 25° C. for the desired reaction period. After incubation the soil from each container was thoroughly mixed, and a 10-g sample was extracted with 100 mL of 2M KCl containing 5 ppm phenylmercuric acetate to prevent urea hydrolysis during handling [L. A. Douglass and J. M. Bremner, Soil Sci. Soc. Am. Proc. 34, 859-862 (1970)]. The urea in the extracts was determined colorimetrically as a measure of unhydrolyzed urea. The results of three-day and six-day incubation tests are illustrated in Table II infra; and as noted supra, plotted in FIG. 1.

[5] = compared with PPDA; cited from earlier work
[6] = 25° C., water partial pressure 12.73 mm of Hg; cited from earlier work

Q: For `NP(N)(=O)O` [DAPA, diamidophosphoric acid], which “urease inhibition (in words)” value (urease [1]) is on record?
A: Its value is “are urease inhibitors”.

Q: For `NP(=O)(O)O` [MAPA, monoamido phosphoric acid], which “urease inhibition (in words)” value (urease [1]) is on record?
A: The value was “are urease inhibitors”.

Q: Which “half-life of PPDA in mixtures with urea” value [2] does the source give for `NP(N)(=O)Oc1ccccc1` [PPDA, phenyl phosphorodiamidate, reference compound] here?
A: The value was 0.9 years.

Q: And the “urease inhibition (in words)” value (urease [1])?
A: The value was “extremely potent inhibitor of urease activity”.

Q: And the first-order reaction half-life ([3]; pH 6.46)?
A: Its first-order reaction half-life is 6.1 days.

Q: What about the first-order reaction half-life ([3]; pH 8.14) of the same compound?
A: The first-order reaction half-life was 1.2 days.

Q: What about the decomposition rate constant ([3]; UAN (36-0-0) saturated with PPDA) of the same compound?
A: Its decomposition rate constant is 10.2 percent decomposition per day.

Q: And the decomposition rate constant ([3]; UAS (29-0-0-5S) saturated with PPDA)?
A: The decomposition rate constant was 20.5 percent decomposition per day.

Q: What about the “average % urea unhydrolyzed, 3 days” value (urease [4]; UAN (31-0-0)) of the same compound?
A: Its value is 83.36%.

Q: And the “% urea unhydrolyzed, 3 days” value (urease [4]; UAN (31-0-0))?
A: The value was 83.64% and 83.09%.

Q: And the “average % urea unhydrolyzed, 6 days” value (urease [4]; UAN (31-0-0))?
A: Its value is 12.61%.

Q: What about the “% urea unhydrolyzed, 6 days” value (urease [4]; UAN (31-0-0)) of the same compound?
A: The value was 14.03% and 11.20%.

Q: What about the “average % urea unhydrolyzed, 3 days” value (urease [4]; UAN (36-0-0)) of the same compound?
A: Its value is 85.73% and 84%.

Q: And the “% urea unhydrolyzed, 3 days” value (urease [4]; UAN (36-0-0))?
A: Its value is 86.22% and 81.24%.

Q: And the “average % urea unhydrolyzed, 6 days” value (urease [4]; UAN (36-0-0))?
A: Its value is 11.32% and 11%.

Q: What about the “% urea unhydrolyzed, 6 days” value (urease [4]; UAN (36-0-0)) of the same compound?
A: The value was 12.10% and 10.53%.

Q: What does the source list for `NP(N)(N)=O` [PTA, phosphoryl triamide]?
A: stability in urea melt [5]: much less stable in urea melt than PPDA; reaction half-life in solid mixtures with urea [6]: 4.3 h

— patent US4676822A, “Fluid fertilizers containing thiophosphoryl triamide” (Tennessee Valley Authority, priority 1986, dated 1987)
